Source: patent US20060194756A1 (priority 2004, published 2006)
Where two headings read alike, the source gives them in different places. Values belong to the compound of their own block, whether it stands above or below them.

Experiments:
[1] = tested on: HIF-1α protein expression in U87MG glioblastoma cells; test: HIF-1α protein expression in U87MG glioblastoma cells under hypoxia; format: cell-based, human; conditions: Cl-IB-MECA 100 nM, 4 hours of hypoxia
Description: (§1) Cell culture and hypoxia treatment: Cells were maintained in DMEM (A375), EMEM (NCTC 2544) or RPMI 1640 (U87MG, U2OS) medium containing 10% fetal calf serum, penicillin (100 U/ml), streptomycin (100 ug/ml), and L-glutamine (2 mM) at 37° C. in 5% CO2/95% air. Cells were passaged two or three times weekly at a ratio between 1:5 and 1:10. Hypoxic exposure was in BBL™ GasPak pouch™ System (Becton Dickinson) that reduce oxygen concentration of less than 2% within 2 hours of incubation at 35° C.
(§2) Cells were harvested and washed with ice-cold PBS containing 1 mM sodium orthovanadate, AEBSF 104 mM, aprotinin 0.08 mM, leupeptin 2 mM, bestatin 4 mM, pepstatin A 1.5 mM, E-64 1.4 mM. Cells were then lysed in Triton lysis buffer. The protein concentration was determined using BCA protein assay kit (Pierce). Equivalent amounts of protein (35 ug) were subjected to electrophoresis on 7.5% sodium dodecyl sulfate-acrylamide gel. The gel was then electroblotted onto a nitrocellulose membrane. […] Aliquots of total protein sample (50 μg) were analyzed using antibodies specific for phosphorylated (Thr183/Tyr185) or total p44/p42 MAPK (1:5000 dilution), phosphorylated (Thr180/Tyr182) or total p38 MAPK (1:1000 dilution) and for A3 receptor (1 μg/ml dilution). […]

[2] = tested on: p38 MAPK phosphorylation in A375 cells; test: p38 MAPK phosphorylation in hypoxic A375 cells (immunoblot); format: cell-based, human; conditions: 4 hours in hypoxia, various concentrations
Description: (§3) Cells were harvested and washed with ice-cold PBS containing 1 mM sodium orthovanadate, AEBSF 104 mM, aprotinin 0.08 mM, leupeptin 2 mM, bestatin 4 mM, pepstatin A 1.5 mM, E-64 1.4 mM. Cells were then lysed in Triton lysis buffer. The protein concentration was determined using BCA protein assay kit (Pierce). Equivalent amounts of protein (35 ug) were subjected to electrophoresis on 7.5% sodium dodecyl sulfate-acrylamide gel. The gel was then electroblotted onto a nitrocellulose membrane. Membranes were blocked with 5% nonfat dry milk in PBS containing 0.1% Tween-20 and incubated with antibodies against HIF-1α (1:250 dilution) and HIF-1β (1:1000 dilution) in 5% nonfat dry milk in PBS/0.1% Tween-20 overnight at 4° C. Aliquots of total protein sample (50 μg) were analyzed using antibodies specific for phosphorylated (Thr183/Tyr185) or total p44/p42 MAPK (1:5000 dilution), phosphorylated (Thr180/Tyr182) or total p38 MAPK (1:1000 dilution) and for A3 receptor (1 μg/ml dilution). Filters were washed and incubated for 1 hour at room temperature with peroxidase-conjugated secondary antibodies against mouse and rabbit IgG (1:2000 dilution). […]
(§4) Densitometry analysis: The intensity of each band in immunoblot assay was quantified using molecular analyst/PC densitometry software (Bio-Rad). […] The data were presented as the mean±S.E., and analyzed by the Student's test.

[3] = tested on: p44/p42 MAPK phosphorylation in A375 cells; test: p44/p42 MAPK phosphorylation in hypoxic A375 cells (immunoblot); format: cell-based, human; conditions: 4 hours in hypoxia
Description: as §3, §4

[4] = tested on: HIF-1α protein expression in U2OS osteosarcoma cells; test: HIF-1α protein expression in U2OS osteosarcoma cells under hypoxia; format: cell-based, human; conditions: Cl-IB-MECA 100 nM, 4 hours of hypoxia
Description: as §1, §2

[5] = tested on: HIF-1α protein expression in A375 melanoma cells; test: HIF-1α protein accumulation in A375 cells (immunoblot, densitometry); format: cell-based, human; conditions: for prevention of adenosine-induced HIF-1α protein expression: adenosine 100 μM, antagonist 100 nM, hypoxia 4 hours; for abrogation of the effect of Cl-IB-MECA in HIF-1α modulation: antagonist 10 and 100 nM, Cl-IB-MECA 10 and 100 nM; for inhibition of Cl-IB-MECA-induced increase of HIF-1α protein expression: U0126 10 and 30 μM, SB202190 1 and 10 μM
Description: as §1
Cells were harvested and washed with ice-cold PBS containing 1 mM sodium orthovanadate, AEBSF 104 mM, aprotinin 0.08 mM, leupeptin 2 mM, bestatin 4 mM, pepstatin A 1.5 mM, E-64 1.4 mM. Cells were then lysed in Triton lysis buffer. The protein concentration was determined using BCA protein assay kit (Pierce). […] The gel was then electroblotted onto a nitrocellulose membrane. Membranes were blocked with 5% nonfat dry milk in PBS containing 0.1% Tween-20 and incubated with antibodies against HIF-1α (1:250 dilution) and HIF-1β (1:1000 dilution) in 5% nonfat dry milk in PBS/0.1% Tween-20 overnight at 4° C. Aliquots of total protein sample (50 μg) were analyzed using antibodies specific for phosphorylated (Thr183/Tyr185) or total p44/p42 MAPK (1:5000 dilution), phosphorylated (Thr180/Tyr182) or total p38 MAPK (1:1000 dilution) and for A3 receptor (1 μg/ml dilution). Filters were washed and incubated for 1 hour at room temperature with peroxidase-conjugated secondary antibodies against mouse and rabbit IgG (1:2000 dilution). […] The membranes were then stripped and reprobed with tubulin (1:250) to ensure equal protein loading.
U0126 was used at 10 and 30 uM as inhibitor of MEK-1 and MEK-2 to prevent p44 and p42 MAPK activation. SB202190 was used at 1 and 10 μM as inhibitor of p38 MAPK.
as §4

[6] = tested on: HIF-1β protein expression in A375 melanoma cells; test: HIF-1β protein expression in A375 cells (immunoblot); format: cell-based, human; conditions: hypoxia (Cl-IB-MECA: normoxia and hypoxia)
Description: as §1
Cells were harvested and washed with ice-cold PBS containing 1 mM sodium orthovanadate, AEBSF 104 mM, aprotinin 0.08 mM, leupeptin 2 mM, bestatin 4 mM, pepstatin A 1.5 mM, E-64 1.4 mM. Cells were then lysed in Triton lysis buffer. The protein concentration was determined using BCA protein assay kit (Pierce). Equivalent amounts of protein (35 ug) were subjected to electrophoresis on 7.5% sodium dodecyl sulfate-acrylamide gel. The gel was then electroblotted onto a nitrocellulose membrane. Membranes were blocked with 5% nonfat dry milk in PBS containing 0.1% Tween-20 and incubated with antibodies against HIF-1α (1:250 dilution) and HIF-1β (1:1000 dilution) in 5% nonfat dry milk in PBS/0.1% Tween-20 overnight at 4° C. Aliquots of total protein sample (50 μg) were analyzed using antibodies specific for phosphorylated (Thr183/Tyr185) or total p44/p42 MAPK (1:5000 dilution), phosphorylated (Thr180/Tyr182) or total p38 MAPK (1:1000 dilution) and for A3 receptor (1 μg/ml dilution). Filters were washed and incubated for 1 hour at room temperature with peroxidase-conjugated secondary antibodies against mouse and rabbit IgG (1:2000 dilution). […] The membranes were then stripped and reprobed with tubulin (1:250) to ensure equal protein loading.

[7] = tested on: HIF-1α protein expression in NCTC 2544 keratinocytes; test: HIF-1α protein expression in NCTC 2544 keratinocytes under hypoxia; format: cell-based, human; conditions: NCTC 2544, Cl-IB-MECA 100 nM, 4 hours of hypoxia
Description: as §1, §2

[8] = tested on: HIF-1α protein degradation in A375 cells; test: HIF-1α degradation after return of hypoxic A375 cells to normoxia; format: cell-based, human; conditions: Cl-IB-MECA 100 nM, 4 hours hypoxia then normoxia 0-15 minutes
Description: as §3, §4

[9] = intact anesthetized rabbits studied in situ; cited from earlier work
[10] = transient middle cerebral artery occlusion focal ischemia; cited from earlier work
[11] = rat 4 vessel occlusion model; cited from earlier work
[12] = Cl-IB-MECA 100 nM, 4 hours in hypoxia

SMILES: CNC(=O)[C@H]1O[C@@H](n2cnc3c(NCc4cccc(I)c4)nc(Cl)nc32)[C@H](O)[C@@H]1O [Cl-IB-MECA]
- HIF-1α protein expression [1]: significant increase
- phosphorylation of p38 MAPK [2]: increased the phosphorylation of p38 MAPK in a dose-dependent manner
- concentration giving maximum induction of p44/p42 phosphorylation [3]: 100 nM
- phosphorylation of p44 and p42 ([3]; nanomolar concentrations): induced
- HIF-1α protein expression [4]: significant increase
- HIF-1α protein levels in CoCl2-treated cells ([5]; 100 μM CoCl2, normoxia, 4 hours): able to increase the levels of HIF-1α protein
- HIF-1α levels in cells exposed to cycloheximide ([5]; 100 μM CoCl2, normoxia, Cl-IB-MECA 100 nM, CHX 1 μM, within 6 hours): failed to increase
- HIF-1α protein expression in the presence of actinomycin D ([5]; Act-D 10 μg/ml, Cl-IB-MECA 100 nM, 4 hours in hypoxia): able to increase HIF-1α protein expression also in the presence of Act-D
- concentration inducing maximum expression of HIF-1α protein ([5]; hypoxia, 4 hours): 100 nM
- time of maximum peak HIF-1α levels after addition ([5]; hypoxia, Cl-IB-MECA 100 nM): 4 h
- HIF-1α protein expression under hypoxic conditions, time course ([5]; hypoxia, Cl-IB-MECA 100 nM, 2-24 hours): increased in a time-dependent manner
- HIF-1α protein accumulation in normoxia ([5]; normoxia, Cl-IB-MECA 100 nM): did not promote HIF-1α protein accumulation
- modulation of HIF-1β protein expression [6]: did not modify
- HIF-1α protein expression [7]: significant increase
- HIF-1α degradation rate after removal of hypoxic conditions [8]: unchanged degradation rate

SMILES: CCCn1c(=O)c2[nH]c(-c3cc(OCC(=O)Nc4ccc5c(c4)OCO5)nn3C)nc2n(CCC)c1=O [MRE 2029F20]
- prevention of adenosine-induced HIF-1α protein expression [5]: not able to prevent

SMILES: Cn1cc2c(nc(NC(=O)Nc3ccncc3)n3nc(-c4ccco4)nc23)n1 [MRE 3005F20]
- abrogation of the effect of Cl-IB-MECA in HIF-1α modulation ([5]; hypoxia): able to abrogate
- modulation of HIF-1β protein expression [6]: neither MRE 3008F20 nor MRE 3005F20 had any effect

- IC50 ([5]; read-out: IC50 for inhibition of HIF-1α protein increase induced by 10 nM Cl-IB-MECA, hypoxia 4 hours, MRE 3008F20 0.3-30 nM): 0.9 ± 0.08 nM
SMILES: CCCn1cc2c(nc(NC(=O)Nc3ccc(OC)cc3)n3nc(-c4ccco4)nc23)n1 [MRE 3008F20]
- prevention of adenosine-induced HIF-1α protein expression [5]: abrogated
- abrogation of the effect of Cl-IB-MECA in HIF-1α modulation ([5]; hypoxia): able to abrogate
- modulation of HIF-1β protein expression [6]: neither MRE 3008F20 nor MRE 3005F20 had any effect

SMILES: C[C@H](Cc1ccccc1)Nc1ncnc2c1ncn2[C@@H]1O[C@H](CO)[C@@H](O)[C@H]1O [PIA, N^6-1-(phenyl-2R-isopropyl) adenosine]
- cardioprotection [9]: pharmacologically induce cardioprotection

SMILES: Oc1ccc(-c2nc(-c3ccncc3)c(-c3ccc(F)cc3)[nH]2)cc1 [SB202190]
- inhibition of Cl-IB-MECA-induced increase of HIF-1α protein expression [5, 12]: able to inhibit

SMILES: Nc1nc2c(cnn2CCc2ccccc2)c2nc(-c3ccco3)nn12 [SCH 58261, 5-amino-7-(2-phenylethyl)-2-(2-furyl)-pyrazolo[4,3-e]-1,2,4-triazolo[1,5-c]pyrimidine]
- prevention of adenosine-induced HIF-1α protein expression [5]: not able to prevent

SMILES: CSCC[C@@H]1NC(=O)[C@H](CC(C)C)NC(=O)[C@H](CCCNC(=N)N)NC(=O)[C@H](CO)NC(=O)[C@@H]2CSSC[C@@H]3NC(=O)[C@H](CO)NC(=O)CNC(=O)[C@H]([C@@H](C)O)NC(=O)[C@H](CSSC[C@H](N)C(=O)N[C@@H](CCCCN)C(=O)NCC(=O)N[C@@H](CCCCN)C(=O)NCC(=O)N[C@@H](C)C(=O)N[C@@H](CCCCN)C(=O)N2)NC(=O)[C@H](CSSC[C@@H](C(N)=O)NC(=O)[C@H](CCCCN)NC(=O)CNC(=O)[C@H](CO)NC(=O)[C@H](CCCNC(=N)N)NC3=O)NC(=O)[C@H](CC(=O)O)NC(=O)[C@H](Cc2ccc(O)cc2)NC1=O [SNX-111]
- neuroprotection [10]: neuroprotective
- neuroprotection [11]: neuroprotective

SMILES: N#CC(=C(/N)Sc1ccccc1N)/C(C#N)=C(\N)Sc1ccccc1N [U0126]
- inhibition of Cl-IB-MECA-induced increase of HIF-1α protein expression [5, 12]: able to inhibit

SMILES: Nc1ncnc2c1ncn2[C@@H]1O[C@H](CO)[C@@H](O)[C@H]1O [adenosine]
- modulation of HIF-1β protein expression [6]: did not observe any modulation
